# Experimental data reported in patent US6660759B1, “4.5-diaryloxazole compounds with prostaglandin I2 (PGI2) agonistic activity” (Fujisawa Pharmaceutical Co. Ltd., priority 1999, dated 2003).
# Test system: Human platelet aggregation induced by ADP (platelet rich plasma)
# Assay: Inhibition of human platelet aggregation induced by ADP
# Type: cell-based
# Details: human PRP; aggregation induced by ADP at final concentration of 2.5 μM; 37° C.
# Description: Inhibition of Human Platelet Aggregation Induced by ADP
# Human blood was obtained from healthy volunteers and mixed with 1/10 volume of 3.8% sodium citrate, pH 7.4. The citrate blood was centrifuged at 150×g for 10 minutes and the platelet rich plasma (PRP) was removed. The remaining blood was centrifuged for a further 10 minutes at 1500×g to prepare the platelet poor plasma (PPP), which was used as a reference for platelet aggregation. Aggregation studies were carried out using HEMATRACER 801 (NBS, Japan), a 8 channel aggregometer. The test compound solution (25 μl) and the PRP (225 μl) were mixed and stirred at 1000 rpm at 37° C. for 2 minutes. Aggregation was induced by ADP solution at the final concentration of 2.5 μM.
compound,measurement,value
CCOC(=O)COc1cccc(CN2C[C@H](O)C[C@@H]2c2nc(-c3ccccc3)c(-c3ccccc3)o2)c1 [(1)],IC50,< 100 nM
